The results in this text go back to US11999712B1, “2-(benzo[b]thiophen-3-yl)-1-butyl-4,5-diphenyl-1H-imidazole as an anti-inflammatory and anti-microbial compound” (KING FAISAL UNIVERSITY, priority 2023, dated 2024).

Molecules are shown by their SMILES.

One series has as its system Candida albicans. In words: antimicrobial activity, agar dilution method. The class given is cell-based. As to conditions: after 10, 20, 40 and 60 min at all dilutions 1:100, 1:200, 1:400, 1:800. The protocol: (§1) The antibacterial properties of the synthesized compounds were studied by the method of agar dilution. Test solutions of each compound was prepared in a concentration of 1% using dimethylformamide as a solvent. Then the test solutions were diluted in a physiological solution to obtain the final experimental dilutions of 1:100, 1:200, 1:400, and 1:800. The effect of these substances was compared with furacillin in a controllable study. The testing microbes used were gram positive bacteria St. Aereus, gram negative bacteria E. Coli, and Ps. aeruginosa and Candida albicans fungi. The experiments used for this survey were a meat-pentonlu agar (EPA) for cultivation of bacteria and a Saburo environment for fungi. Each experiment used 1 mL of test solution on each plate for 500 min. Next, 2 drops of emulsified test solution with microbes feel were added. All experimental samples were taken from the agar after 10, 20, 40, 60 minutes in the environment on the basis of Patrk planted. Bacteria were cultivated at a temperature of 37° ° C. for 1 day and the mushroom was kept in a thermostat for […] at a temperature of 28° C. Then results were checked. Results for the control and the antimicrobial activity for the synthesized compounds are listed in Table 1 below. […]

For a further series, the system named is E. Coli. In words: antimicrobial activity, agar dilution method. The class given is cell-based. The conditions noted are these: after 10, 20, 40 and 60 min at all dilutions 1:100, 1:200, 1:400, 1:800. The protocol:
as §1
In general terms: In agar dilution, organisms are placed on agar that contains the substance at set levels.

In a further series the test system is Ps. aeruginosa. In words: antimicrobial activity, agar dilution method. The format is cell-based. As to conditions: after 10, 20, 40 and 60 min at all dilutions 1:100, 1:200, 1:400, 1:800. As for the experimental part:
as §1

The test system of the next series is St. Aereus. As to the kind of experiment: antimicrobial activity, agar dilution method. The class given is cell-based. The conditions noted are these: after 10, 20, 40 and 60 min at all dilutions 1:100, 1:200, 1:400, 1:800. The protocol: as §1

With `CN(C)CCCn1c(-c2cccnc2)nc(-c2ccccc2)c1-c1ccccc1` [3-(4,5-Diphenyl-2-(pyridin-3-yl)-1H-imidazol-1-yl)-N,N-dimethylpropan-1-amine], the inhibition activity entry with Candida albicans, in the series on E. Coli, in the series on Ps. aeruginosa and in the series with St. Aereus was “highest inhibition activity” throughout.
Turning to `CCCCn1c(-c2csc3ccccc23)nc(-c2ccccc2)c1-c1ccccc1` [2-(Benzo[b]thiophen-3-yl)-1-butyl-4,5-diphenyl-1H-imidazole], the melting point (as a rule, the temperature, or range, at which the solid turns liquid) was 151 to 153 °C. Besides, the inhibition activity result with Candida albicans is on record as “most inhibition activity”. Moreover, the inhibition activity entry with E. Coli is “most inhibition activity”. Also, the inhibition activity result with Ps. aeruginosa was “most inhibition activity”. Moreover, the inhibition activity result in the series on St. Aereus is reported as “most inhibition activity”.
